{
  "source": "patent EP4660196A1",
  "about": "“CRYSTAL FORM OF COMPOUND, PREPARATION METHOD THEREFOR AND USE THEREOF” (Felicamed Biotechnology Co., Ltd., priority 2023, dated 2024)",
  "key": {"[1]": {"experiment": "Mechanical stability (grinding, tableting at 350 MPa, XRPD)", "type": "physicochemical"}, "[2]": {"experiment": "Pharmacokinetics of hydrochloride crystal form A in Beagle dogs (intragastric)", "type": "in vivo", "settings": "dog", "method": "Three 31-month-old male Beagle dogs used in this experiment were purchased from Beijing Marshall Bioresources Co., Ltd., with the animal qualification certificate No. 110318201100056783.\nIn this experiment, three male Beagle dogs were randomly selected for administration. All the animals were fasted for at least 12 h before administration and were fed again 4 h after administration. […] Table 28 Administration methods for animals\nThe blood samples from the animals were collected through the jugular vein, with a blood sample volume of 0.5 mL/time. All collected whole blood samples were placed in centrifuge tubes containing EDTA-K2, and the centrifuge tubes were turned upside down to allow the anticoagulant and blood to be fully mixed. All the blood samples were placed on wet ice before centrifugation and centrifuged at 1500 g for 10 min to separate plasma. The plasma samples were transferred to sample tubes and stored at -40°C to […] until analysis.\nThe drug concentration in the plasma of each Beagle dog was detected by an LC-MS/MS method. […]"}, "[3]": {"settings": "for Carr index: (tapped density - bulk density) / tapped density; for Average angle of repose (°) / Average bulk density / Average tapped density: mean of three tests", "method": "A method for testing the density and the tapped density included: (1) a certain mass of to-be-assessed sample was placed into a 5 mL measuring cylinder, and the volume at this moment was recorded. The bulk density was calculated by dividing the mass of the sample by the volume at this moment. (2) The measuring cylinder was slightly tapped 200 times, the final volume was recorded, and the tapped density was calculated by dividing the mass of the sample by the final volume. (3) Three parallel tests were conducted. A method for testing the angle of repose included: (1) a funnel was fixed vertically to a bottom surface, and the material was slowly placed into the funnel. (2) A well-proportioned cone of the material was formed on the bottom surface. The height and bottom surface diameter of the cone were measured. (3) Three parallel tests were conducted.\nAngle of repose α = […], where h is the cone height, and D is the cone diameter."}, "[4]": {"experiment": "Solid-state stability (XRPD, UPLC purity)", "settings": "for Crystal form Transform: XRPD; for Purity (area%): starting purity 99.82 (hydrochloride), 99.72 (free); for Area (%): UPLC main peak (#Peak 1, RRT 1.00)"}, "[5]": {"type": "physicochemical", "settings": "37°C; for S: solubility: calculated as free form; for pH: pH of filtrate"}, "[6]": {"settings": "DVS", "method": "DVS isotherms were collected on an SMS (Surface Measurement Systems) DVS Intrinsic. Relative humidity at 25°C was calibrated using the deliquescence points of LiCl, Mg(NO3)2, and KCl. Table 9 DVS testing parameters"}, "[7]": {"type": "physicochemical", "settings": "24 h; for S: solubility / pH: room temperature; for S: solubility: calculated as free form; for FC: crystal transfer: XRPD of solid; for pH: pH of filtrate"}, "[8]": {"settings": "listed as hydrochloride crystal form A"}, "[9]": {"settings": "single values of three parallel tests"}},
  "note": "Where “and” joins values, the source holds several entries; their conditions need not be identical. Equal values may be shown once. Where a name gives a salt, the structure may show the parent alone. Read-outs that look alike come from different tables or passages of the source.",
  "data": [
    {"molecule": "CC[S@@](=N)(=O)C[C@H]1CC[C@H](N(C)c2ncnc3[nH]ccc23)CC1", "note": "[Hydrochloride crystal form A]", "values": [
      {"measurement": "Results of mechanical stability After grinding", "setting": "[1]; manual grinding", "value": "The crystal form remains unchanged"},
      {"measurement": "Results of mechanical stability After tableting", "setting": "[1]; tablet press, 350 MPa", "value": "The crystal form remains unchanged, but the crystallinity is slightly reduced"},
      {"measurement": "clinical observation", "setting": "[2]; in vivo", "value": "no obvious abnormalities were found"},
      {"measurement": "k el", "setting": "[2]; plasma, po, 6 mg/kg", "value": "5.39e-05", "unit": "s⁻¹"},
      {"measurement": "Carr index", "setting": "[3]", "value": 41, "unit": "%"},
      {"measurement": "Carr index", "setting": "[3]; [8]", "value": 41, "unit": "%"},
      {"measurement": "Average angle of repose (°)", "setting": "[3]", "value": 33.9, "unit": "°"},
      {"measurement": "Average bulk density", "setting": "[3]", "value": 0.14, "unit": "g/mL"},
      {"measurement": "Average tapped density", "setting": "[3]", "value": 0.24, "unit": "g/mL"},
      {"measurement": "Average angle of repose (°)", "setting": "[3]; [8]", "value": 33.9, "unit": "°"},
      {"measurement": "Average bulk density", "setting": "[3]; [8]", "value": 0.14, "unit": "g/mL"},
      {"measurement": "Average tapped density", "setting": "[3]; [8]", "value": 0.24, "unit": "g/mL"},
      {"measurement": "Angle of repose (°)", "setting": "[3]; [9]", "value": "33.7 ° and 37.2 ° and 30.8 °"},
      {"measurement": "Bulk density", "setting": "[3]; [9]", "value": "0.14 g/mL and 0.13 g/mL"},
      {"measurement": "Tapped density", "setting": "[3]; tapped 200 times, single values of three parallel tests", "value": "0.23 g/mL and 0.25 g/mL"},
      {"measurement": "Crystal form Transform", "setting": "[4]; 25°C/60% RH/4 weeks, open", "value": "No"},
      {"measurement": "Purity (area%)", "setting": "[4]; 25°C/60% RH/4 weeks, open", "value": 99.88, "unit": "area%"},
      {"measurement": "Crystal form Transform", "setting": "[4]; 40°C/75% RH/4 weeks, open", "value": "No"},
      {"measurement": "Purity (area%)", "setting": "[4]; 40°C/75% RH/4 weeks, open", "value": 99.88, "unit": "area%"},
      {"measurement": "Crystal form Transform", "setting": "[4]; 80°C/1 d, closed", "value": "No"},
      {"measurement": "Area (%)", "setting": "[4]; 25°C/60% RH/4 weeks", "value": 99.88, "unit": "%"},
      {"measurement": "Area (%)", "setting": "[4]; 40°C/75% RH/4 weeks", "value": 99.88, "unit": "%"},
      {"measurement": "Area (%)", "setting": "[4]; 80°C/1 d", "value": 99.87, "unit": "%"},
      {"measurement": "S: solubility", "setting": "[5]; FaSSIF, 1 h, 60 min", "value": ">9500", "unit": "µg/mL"},
      {"measurement": "S: solubility", "setting": "[5]; FaSSIF, 2 h, 120 min", "value": ">9700", "unit": "µg/mL"},
      {"measurement": "S: solubility", "setting": "[5]; FaSSIF, 4 h, 240 min", "value": ">9800", "unit": "µg/mL"},
      {"measurement": "S: solubility", "setting": "[5]; FaSSIF, 24 h, 1440 min", "value": ">9600", "unit": "µg/mL"},
      {"measurement": "S: solubility", "setting": "[5]; FeSSIF, 1 h, 60 min", "value": ">10400", "unit": "µg/mL"},
      {"measurement": "S: solubility", "setting": "[5]; FeSSIF, 2 h, 120 min", "value": ">10200", "unit": "µg/mL"},
      {"measurement": "S: solubility", "setting": "[5]; FeSSIF, 4 h, 240 min", "value": ">10200", "unit": "µg/mL"},
      {"measurement": "S: solubility", "setting": "[5]; FeSSIF, 24 h, 1440 min", "value": ">10000", "unit": "µg/mL"},
      {"measurement": "S: solubility", "setting": "[5]; H2O, 1 h, 60 min", "value": ">9300", "unit": "µg/mL"},
      {"measurement": "S: solubility", "setting": "[5]; H2O, 4 h, 240 min", "value": ">9500", "unit": "µg/mL"},
      {"measurement": "S: solubility", "setting": "[5]; SGF, 1 h, 60 min", "value": ">9800", "unit": "µg/mL"},
      {"measurement": "S: solubility", "setting": "[5]; SGF, 2 h, 120 min", "value": ">9900", "unit": "µg/mL"},
      {"measurement": "S: solubility", "setting": "[5]; SGF, 4 h, 240 min", "value": ">9800", "unit": "µg/mL"},
      {"measurement": "S: solubility", "setting": "[5]; SGF, 24 h, 1440 min", "value": ">10300", "unit": "µg/mL"},
      {"measurement": "pH", "setting": "[5]; FaSSIF, 1 h", "value": 5.0},
      {"measurement": "pH", "setting": "[5]; FaSSIF, 2 h", "value": 5.1},
      {"measurement": "pH", "setting": "[5]; FaSSIF, 4 h", "value": 5.1},
      {"measurement": "pH", "setting": "[5]; FaSSIF, 24 h", "value": 5.0},
      {"measurement": "pH", "setting": "[5]; FeSSIF, 1 h", "value": 4.9},
      {"measurement": "pH", "setting": "[5]; FeSSIF, 2 h", "value": 4.9},
      {"measurement": "pH", "setting": "[5]; FeSSIF, 4 h", "value": 4.9},
      {"measurement": "pH", "setting": "[5]; FeSSIF, 24 h", "value": 4.8},
      {"measurement": "pH", "setting": "[5]; H2O, 1 h", "value": 4.0},
      {"measurement": "pH", "setting": "[5]; H2O, 2 h", "value": 4.0},
      {"measurement": "pH", "setting": "[5]; H2O, 4 h", "value": 4.0},
      {"measurement": "pH", "setting": "[5]; H2O, 24 h", "value": 4.0},
      {"measurement": "pH", "setting": "[5]; SGF, 1 h", "value": 2.9},
      {"measurement": "pH", "setting": "[5]; SGF, 2 h", "value": 3.0},
      {"measurement": "pH", "setting": "[5]; SGF, 4 h", "value": 3.0},
      {"measurement": "pH", "setting": "[5]; SGF, 24 h", "value": 2.9},
      {"measurement": "Hygroscopic weight gain (wt%) at 25°C/80% RH", "setting": "[6]", "value": 0.47, "unit": "wt%"},
      {"measurement": "Hygroscopic weight gain (wt%) at 25°C/80% RH", "setting": "[6]; [8]", "value": 0.47, "unit": "wt%"},
      {"measurement": "S: solubility", "setting": "[7]; Buffer (pH=2.0)", "value": ">9500", "unit": "µg/mL"},
      {"measurement": "S: solubility", "setting": "[7]; Buffer (pH=7.4)", "value": 2500, "unit": "µg/mL"},
      {"measurement": "FC: crystal transfer", "setting": "[7]; Buffer (pH=7.4)", "value": "Yes"},
      {"measurement": "FC: crystal transfer", "setting": "[7]; Buffer (pH=7.4), listed as hydrochloride crystal form A", "value": "transformed into the free crystal form A"},
      {"measurement": "pH", "setting": "[7]; Buffer (pH=2.0)", "value": 3.5},
      {"measurement": "pH", "setting": "[7]; Buffer (pH=4.5)", "value": 4.4},
      {"measurement": "pH", "setting": "[7]; Buffer (pH=7.4)", "value": 6.2}
    ]}
  ]
}
